Data as given in ChEMBL document CHEMBL1201862, “PubChem BioAssay data set” (2004).
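A five-concentration, 48-hour dose response in 96-well plates underlies each endpoint, interpolated linearly between surrounding concentrations. The concentration for 50% growth inhibition is given as GI50.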 Active and inactive are the calls of the source. No stated cut-off is given here; in the data, active = GI50 up to about 1.1 µM and inactive = higher.

Columns and labels:
Assay in all cases: inhibition of tumour cell growth, NCI panel, 48 h
786-0 = tested on: 786-0
A498 = tested on: A498
A549 = tested on: A549
ACHN = tested on: ACHN
CAKI-1 = tested on: CAKI-1
CCRF-CEM = tested on: CCRF-CEM
COLO 205 = tested on: COLO 205
DLD-1 = tested on: DLD-1
DMS-273 = tested on: DMS-273
EKVX = tested on: EKVX
HCC 2998 = tested on: HCC 2998
HCT-116 = tested on: HCT-116
HCT-15 = tested on: HCT-15
HL-60 = tested on: HL-60
HOP-62 = tested on: HOP-62
HOP-92 = tested on: HOP-92
HT-29 = tested on: HT-29
IGROV-1 = tested on: IGROV-1
K562 = tested on: K562
KM-20L2 = tested on: KM-20L2
KM12 = tested on: KM12
LOX IMVI = tested on: LOX IMVI
LXFL 529 = tested on: LXFL 529
M14 = tested on: M14
M19-MEL = tested on: M19-MEL
MOLT-4 = tested on: MOLT-4
Malme-3M = tested on: Malme-3M
NCI-H226 = tested on: NCI-H226
NCI-H23 = tested on: NCI-H23
NCI-H460 = tested on: NCI-H460
NCI-H522 = tested on: NCI-H522
OVCAR-3 = tested on: OVCAR-3
OVCAR-4 = tested on: OVCAR-4
OVCAR-5 = tested on: OVCAR-5
OVCAR-8 = tested on: OVCAR-8
RPMI-8226 = tested on: RPMI-8226
RXF 393 = tested on: RXF 393
SF-268 = tested on: SF-268
SK-OV-3 = tested on: SK-OV-3
SN12C = tested on: SN12C
SNB-19 = tested on: SNB-19
SNB-75 = tested on: SNB-75
SNB-78 = tested on: SNB-78
SR = tested on: SR
SW-620 = tested on: SW-620
TK-10 = tested on: TK-10
U-251 = tested on: U-251
UACC-257 = tested on: UACC-257
UACC-62 = tested on: UACC-62
UO-31 = tested on: UO-31
BT-549 = tested on: BT-549
DU-145 = tested on: DU-145
Hs-578T = tested on: Hs-578T
MCF7 = tested on: MCF7
MDA-MB-231 = tested on: MDA-MB-231
MDA-MB-435 = tested on: MDA-MB-435
MDA-N = tested on: MDA-N
NCI/ADR-RES = tested on: NCI/ADR-RES
PC-3 = tested on: PC-3
SF-295 = tested on: SF-295
SF-539 = tested on: SF-539
SK-MEL-28 = tested on: SK-MEL-28
SK-MEL-2 = tested on: SK-MEL-2
SK-MEL-5 = tested on: SK-MEL-5
T47D = tested on: T47D

In the case of `COC(=O)C(C(=O)C(=O)Nc1nnc(S)[nH]1)c1csc(-n2nc(-c3ccccc3)cc2-c2ccccc2)n1` (stereo not drawn), the GI50 (786-0) was > 100 µM (inactive), the GI50 (A498) was > 100 µM (inactive) and the GI50 (A549) was > 100 µM (inactive). For the same molecule, the GI50 (ACHN) was > 100 µM (inactive), the GI50 (CAKI-1) was > 100 µM (inactive) and the GI50 (CCRF-CEM) was > 100 µM (inactive). For the same molecule, the GI50 (COLO 205) was > 100 µM (inactive), the GI50 (DLD-1) was > 100 µM (inactive) and the GI50 (DMS-273) was > 100 µM (inactive). For the same molecule, the GI50 (EKVX) was 33.3 µM (inactive), the GI50 (HCC 2998) was > 100 µM (inactive) and the GI50 (HCT-116) was > 100 µM (inactive). For the same molecule, the GI50 (HCT-15) was over 100 µM, the GI50 (HL-60) was > 100 µM (inactive) and the GI50 (HOP-62) was > 100 µM (inactive). For the same molecule, the GI50 (HOP-92) was 44.5 µM (inactive), the GI50 (HT-29) was 27.5 µM (inactive) and the GI50 (IGROV-1) was > 100 µM (inactive). For the same molecule, the GI50 (K562) was > 100 µM (inactive), the GI50 (KM-20L2) was > 100 µM (inactive) and the GI50 (KM12) was > 100 µM (inactive). The GI50 (LOX IMVI) was > 100 µM (inactive), the GI50 (LXFL 529) was > 100 µM (inactive) and the GI50 (M14) was > 100 µM (inactive). The GI50 (M19-MEL) was > 100 µM (inactive), the GI50 (MOLT-4) was > 100 µM (inactive) and the GI50 (Malme-3M) was > 100 µM (inactive). For the same molecule, the GI50 (NCI-H226) was > 100 µM (inactive), the GI50 (NCI-H23) was > 100 µM (inactive) and the GI50 (NCI-H460) was > 100 µM (inactive). For the same molecule, the GI50 (NCI-H522) was > 100 µM (inactive), the GI50 (OVCAR-3) was > 100 µM (inactive) and the GI50 (OVCAR-4) was > 100 µM (inactive). The GI50 (OVCAR-5) was > 100 µM (inactive), the GI50 (OVCAR-8) was > 100 µM (inactive) and the GI50 (RPMI-8226) was > 100 µM (inactive). For the same molecule, the GI50 (RXF 393) was > 100 µM (inactive), the GI50 (SF-268) was > 100 µM (inactive) and the GI50 (SK-OV-3) was > 100 µM (inactive). For the same molecule, the GI50 (SN12C) was > 100 µM (inactive), the GI50 (SNB-19) was > 100 µM (inactive) and the GI50 (SNB-75) was 3.75 µM (inactive). For the same molecule, the GI50 (SNB-78) was > 100 µM (inactive), the GI50 (SR) was > 100 µM (inactive) and the GI50 (SW-620) was > 100 µM (inactive). The GI50 (TK-10) was > 100 µM (inactive), the GI50 (U-251) was > 100 µM (inactive) and the GI50 (UACC-257) was > 100 µM (inactive). The GI50 (UACC-62) was > 100 µM (inactive) and the GI50 (UO-31) was 5.61 µM (inactive).
For `O=[N+]([O-])c1ccc(NC(=S)Nc2ccccn2)cc1`, the GI50 (786-0) was 16.8 µM (inactive), the GI50 (A498) was 12.8 µM (inactive) and the GI50 (A549) was 19.1 µM (inactive). For the same molecule, the GI50 (ACHN) was 34.1 µM (inactive), the GI50 (BT-549) was > 92.3 µM (inactive) and the GI50 (CAKI-1) was 5.11 µM (inactive). The GI50 (CCRF-CEM) was > 64.4 µM (inactive), the GI50 (COLO 205) was 18.5 µM (inactive) and the GI50 (DU-145) was 7.5 µM (inactive). The GI50 (EKVX) was 8.45 µM (inactive), the GI50 (HCC 2998) was > 100 µM (inactive) and the GI50 (HCT-116) was 11.9 µM (inactive). The GI50 (HCT-15) was 18.8 µM, the GI50 (HL-60) was 14 µM (inactive) and the GI50 (HOP-62) was 17.3 µM (inactive). The GI50 (HOP-92) was 72.4 µM (inactive), the GI50 (HT-29) was 31.7 µM (inactive) and the GI50 (Hs-578T) was 13.8 µM (inactive). For the same molecule, the GI50 (IGROV-1) was 11.9 µM (inactive), the GI50 (K562) was > 69.2 µM (inactive) and the GI50 (KM12) was 10.3 µM (inactive). For the same molecule, the GI50 (LOX IMVI) was 16.4 µM (inactive), the GI50 (M14) was 46.8 µM (inactive) and the GI50 (MCF7) was 12.4 µM (inactive). The GI50 (MDA-MB-231) was 40.3 µM (inactive), the GI50 (MDA-MB-435) was 20.8 µM (inactive) and the GI50 (MDA-N) was 91.8 µM (inactive). For the same molecule, the GI50 (MOLT-4) was 16.9 µM (inactive), the GI50 (Malme-3M) was 72.9 µM (inactive) and the GI50 (NCI-H226) was 22.7 µM (inactive). For the same molecule, the GI50 (NCI-H23) was 63.4 µM (inactive), the GI50 (NCI-H460) was 23.3 µM (inactive) and the GI50 (NCI-H522) was 31.8 µM (inactive). The GI50 (NCI/ADR-RES) was 33.4 µM (inactive), the GI50 (OVCAR-3) was 18.6 µM (inactive) and the GI50 (OVCAR-4) was 37.5 µM (inactive). The GI50 (OVCAR-5) was 27.7 µM (inactive), the GI50 (OVCAR-8) was 31.5 µM (inactive) and the GI50 (PC-3) was 40.6 µM (inactive). For the same molecule, the GI50 (RPMI-8226) was > 100 µM (inactive), the GI50 (RXF 393) was 4.68 µM (inactive) and the GI50 (SF-268) was 26.9 µM (inactive). The GI50 (SF-295) was 27.4 µM (inactive), the GI50 (SF-539) was 8.63 µM (inactive) and the GI50 (SK-MEL-28) was > 95.3 µM (inactive). The GI50 (SK-MEL-2) was > 53.1 µM (inactive), the GI50 (SK-MEL-5) was 43.3 µM (inactive) and the GI50 (SK-OV-3) was 47 µM (inactive). For the same molecule, the GI50 (SN12C) was 37.2 µM (inactive), the GI50 (SNB-19) was 57.3 µM (inactive) and the GI50 (SNB-75) was 18 µM (inactive). The GI50 (SR) was 5.28 µM (inactive), the GI50 (SW-620) was 40.3 µM (inactive) and the GI50 (T47D) was 35.7 µM (inactive). For the same molecule, the GI50 (TK-10) was 31.3 µM (inactive), the GI50 (U-251) was 24.3 µM (inactive) and the GI50 (UACC-257) was 64.4 µM (inactive). The GI50 (UACC-62) was 19.9 µM (inactive) and the GI50 (UO-31) was 26.2 µM (inactive).
For `O=c1cc(/N=N\c2ccc(Cl)c(Cl)c2)[nH]c(=O)[nH]1`, the GI50 (786-0) was 1.51 µM (inactive), the GI50 (A498) was 15.3 µM (inactive) and the GI50 (A549) was 15.3 µM (inactive). For the same molecule, the GI50 (ACHN) was 1.62 µM (inactive), the GI50 (BT-549) was 2.21 µM (inactive) and the GI50 (CAKI-1) was 2.07 µM (inactive). For the same molecule, the GI50 (CCRF-CEM) was 0.033 µM (active), the GI50 (COLO 205) was 1.81 µM (inactive) and the GI50 (DU-145) was 2.94 µM (inactive). For the same molecule, the GI50 (EKVX) was 1.6 µM (inactive), the GI50 (HCC 2998) was 2.45 µM (inactive) and the GI50 (HCT-116) was 1.75 µM (inactive). The GI50 (HCT-15) was 1.72 µM, the GI50 (HL-60) was 0.292 µM (active) and the GI50 (HOP-62) was 6.43 µM (inactive). The GI50 (HOP-92) was 1.59 µM (inactive), the GI50 (HT-29) was 1.73 µM (inactive) and the GI50 (Hs-578T) was 2.57 µM (inactive). The GI50 (IGROV-1) was 1.57 µM (inactive), the GI50 (K562) was 0.977 µM (active) and the GI50 (KM12) was 2.26 µM (inactive). The GI50 (LOX IMVI) was 1.76 µM (inactive), the GI50 (M14) was 1.93 µM (inactive) and the GI50 (MCF7) was 1.64 µM (inactive). The GI50 (MDA-MB-231) was 1.85 µM (inactive), the GI50 (MDA-MB-435) was 6.55 µM (inactive) and the GI50 (MDA-N) was 1.8 µM (inactive). For the same molecule, the GI50 (MOLT-4) was 1.97 µM (inactive), the GI50 (Malme-3M) was 2.23 µM (inactive) and the GI50 (NCI-H226) was 15.1 µM (inactive). The GI50 (NCI-H23) was 3.89 µM (inactive), the GI50 (NCI-H460) was 2.47 µM (inactive) and the GI50 (NCI-H522) was 1.07 µM (active). For the same molecule, the GI50 (NCI/ADR-RES) was 1.85 µM (inactive), the GI50 (OVCAR-3) was 2.36 µM (inactive) and the GI50 (OVCAR-4) was 2.91 µM (inactive). The GI50 (OVCAR-5) was 4.85 µM (inactive), the GI50 (OVCAR-8) was 2.21 µM (inactive) and the GI50 (PC-3) was 5.74 µM (inactive). The GI50 (RPMI-8226) was 2.14 µM (inactive), the GI50 (RXF 393) was 1.77 µM (inactive) and the GI50 (SF-268) was 2.88 µM (inactive). The GI50 (SF-295) was 15.3 µM (inactive), the GI50 (SF-539) was 2.61 µM (inactive) and the GI50 (SK-MEL-28) was 1.73 µM (inactive). The GI50 (SK-MEL-2) was 5.2 µM (inactive), the GI50 (SK-MEL-5) was 4.89 µM (inactive) and the GI50 (SK-OV-3) was 15.8 µM (inactive). The GI50 (SN12C) was 2.11 µM (inactive), the GI50 (SNB-19) was 12.1 µM (inactive) and the GI50 (SNB-75) was 9.62 µM (inactive). For the same molecule, the GI50 (SR) was 0.337 µM (active), the GI50 (SW-620) was 1.86 µM (inactive) and the GI50 (T47D) was 2.56 µM (inactive). For the same molecule, the GI50 (TK-10) was 1.78 µM (inactive), the GI50 (U-251) was 1.87 µM (inactive) and the GI50 (UACC-257) was 2.38 µM (inactive). The GI50 (UACC-62) was 2.01 µM (inactive) and the GI50 (UO-31) was 2.07 µM (inactive).
